The values below come from ChEMBL document CHEMBL4837253, “Structure-Based Discovery of Proline-Derived Arginase Inhibitors with Improved Oral Bioavailability for Immuno-Oncology” (ACS Med Chem Lett, 2021).

The source made the active and inactive calls. The calls are words filed in the database; no cut-off is given here.

A word on the IC50: it is the midpoint of a concentration-inhibition curve. For orientation: bioavailability means dose-corrected exposure relative to a reference, in per cent. Usually EC50 stands for the midpoint of the concentration-response curve. The low end stands for greater potency, the high end for weaker potency.

The target of data set [1] is T1, Arginase-1 (Homo sapiens, UniProt P05089).
T1 sequence (P05089 whole entry): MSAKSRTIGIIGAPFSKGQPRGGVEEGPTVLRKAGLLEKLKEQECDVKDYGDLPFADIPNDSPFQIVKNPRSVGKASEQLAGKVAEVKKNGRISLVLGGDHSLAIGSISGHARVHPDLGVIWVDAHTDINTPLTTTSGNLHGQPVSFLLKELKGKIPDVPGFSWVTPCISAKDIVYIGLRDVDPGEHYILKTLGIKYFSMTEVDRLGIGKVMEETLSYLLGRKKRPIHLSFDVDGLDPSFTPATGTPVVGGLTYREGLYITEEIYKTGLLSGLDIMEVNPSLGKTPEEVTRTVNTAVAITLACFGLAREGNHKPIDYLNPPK
The experiment in a line: Inhibition of human recombinant ARG1 expressed in Escherichia coli using thioarginine as a substrate preincubated for 30 mins followed by substrate addition and incubated for 60 mins by fluorescence based arginine thio ornithine generating assay.

A short description of data set [2]: Oral bioavailability in C57BL/6 mouse at 10 mg/kg. It is filed as ADME, organism-based. Particulars: in vivo.
Data set [3] concerns the target T1, Arginase-1. The experiment in a line: Inhibition of human ARG1 in HEK293 cells by cell based assay.
The nature of data set [4]: Oral bioavailability in Wister Han rat at 10 mg/kg. The class given is ADME, organism-based. Particulars: in vivo.
The nature of data set [5]: Drug uptake in serum of EMT6 tumor bearing BALB/c mouse at 30 to 300 mg/kg, po administered twice daily measured after 2 days. It is filed as ADME, organism-based. The following applies: in vivo, 48 h, dose 30-300 mg/kg, time 2 day.
Data set [6] is described as follows: Drug uptake in tumor of EMT6 tumor bearing BALB/c mouse at 30 to 300 mg/kg, po administered twice daily measured after 2 days. The class given is ADME, organism-based, Neoplasm. The following applies: in vivo, 48 h, dose 30-300 mg/kg, time 2 day.
Data set [7] concerns EMT6. The experiment in a line: In vivo inhibition of […] in EMT6 tumor bearing BALB/c mouse assessed as elevated arginine levels in tumor measured after 2 days. It is filed as functional, organism-based. The following applies: time 2.0 day.
Data set [8] deals with EMT6. The experiment in a line: In vivo inhibition of […] in EMT6 tumor bearing BALB/c mouse assessed as elevated arginine levels in tumor at 250 mg/kg, po administered twice daily measured after 14 days. The class given is functional, organism-based. The following applies: Neoplasm, time 14.0 day.
In data set [9] the test system is EMT6. The experiment in a line: In vivo inhibition of […] in EMT6 tumor bearing BALB/c mouse assessed as elevated arginine levels in serum in the presence of mouse anti-PD-1 mAb at 250 mg/kg, po administered twice daily measured after 14 days. The class given is functional, organism-based. The following applies: time 14.0 day.
The test system of data set [10] is EMT6. The experiment in a line: In vivo inhibition of […] in EMT6 tumor bearing BALB/c mouse assessed as elevated arginine levels in tumor in the presence of mouse anti-PD-1 mAb at 250 mg/kg, po administered twice daily measured after 14 days. Particulars: Neoplasm, time 14.0 day. It is filed as functional, organism-based.
Data set [11] concerns EMT6. The experiment in a line: In vivo inhibition of […] in EMT6 tumor bearing BALB/c mouse assessed as elevated arginine levels in serum measured after 2 days. The class given is functional, organism-based. Particulars: time 2.0 day.
Data set [12] is described as follows: Toxicity in EMT6 tumor bearing BALB/c mouse assessed as change in body weight at 30 to 300 mg/kg, po administered twice daily measured up to 14 days. It is filed as organism-based. The following applies: in vivo, 336 h, dose 30-300 mg/kg, time <=14 day.
Data set [13] has as its system EMT6. The experiment in a line: In vivo inhibition of […] in EMT6 tumor bearing BALB/c mouse assessed as elevated arginine levels in serum at 250 mg/kg, po administered twice daily measured after 14 days. The class given is functional, organism-based. The following applies: time 14.0 day.
Data set [14] in a line: Stability in C57BL/6 mouse hepatocytes. It is filed as ADME, cell-based, Hepatocyte.
Data set [15] can be described thus: Metabolic stability in C57BL/6 mouse hepatocytes assessed as hydrolysis product of (2S,3R,4R)-4-amino-3-(3-boronopropyl)pyrrolidine-2-carboxylic acid measured. The class given is ADME, cell-based, Hepatocyte.
Data set [16] can be described thus: Oral bioavailability in C57BL/6 mouse in the presence of compound 18 at 10 mg/kg. The class given is ADME, organism-based. The following applies: in vivo.

In the case of `CN[C@H](C(=O)N[C@H]1CN[C@H](C(=O)O)[C@@H]1CCCB(O)O)C(C)C`, on Arginase-1 [1], the concentration for half-maximal inhibition (IC50) came to 5 nM. Also, in [2], the bioavailability was determined as 4.6%.

As for `C[C@@H]1C[C@@H](CCCB(O)O)[C@@H](C(=O)O)N1`, at Arginase-1 [3], the concentration for a half-maximal effect (EC50) came out at 2800 nM. On Arginase-1 [1], the IC50 stood at 7 nM. The same compound had a bioavailability in [2] of 31%.

For `O=C(O)[C@H]1NCC[C@@H]1CCCB(O)O`, the bioavailability amounted to 34% in data set [4] and 44% in data set [2].

As to `O=C(O)[C@H]1NCC[C@@]1(CO)CCCB(O)O`, the results for the bioavailability in [4] and in [2] were 39% and 34%, respectively. Also, the EC50 on Arginase-1 [3] turned out to be 11000 nM. At Arginase-1 [1], the IC50 is 19 nM.

`N[C@H]1CN[C@H](C(=O)O)[C@@H]1CCCB(O)O` gave an EC50 on Arginase-1 [3] of 20000 nM. Further, the IC50 on Arginase-1 [1] turned out to be 3 nM. This compound returned a bioavailability in data set [2] of 14%.

Take `O=C(O)[C@H]1NC[C@@H]1CCCB(O)O`: the bioavailability in data set [2] is 50%.

As for `O=C(O)[C@H]1NCC[C@H]1CCCB(O)O`, the bioavailability in [4] amounted to 25%; in [2] it was 43%. Further, the Drug uptake result in [5] and in [6] was “Active” each time. Moreover, a half-maximal effect at Arginase-1 [3] (EC50) was put at 3400 nM. For the same compound, the figures for the Activity result (in the data set with EMT6 [7]; in the data set with EMT6 [11]; in data set [12]) were “Dose-Dependent Effect”, “Dose-Dependent Effect” and “Non-Toxic”, respectively. The inhibition entry in the data set on EMT6 [8], in the data set with EMT6 [9], in the data set with EMT6 [10] and in the data set with EMT6 [13] was “Active” each time. In addition, the IC50 on Arginase-1 [1] came out at 16 nM.

In data set [2], `CN[C@H]1CN[C@H](C(=O)O)[C@@H]1CCCB(O)O` displayed a bioavailability of 11%.

`O=C(O)[C@H]1NC[C@H]1CCCB(O)O`: the bioavailability in data set [2] was 42%.

With `CC(C)[C@@H](N)C(=O)N[C@H]1CN[C@H](C(=O)O)[C@@H]1CCCB(O)O`, on Arginase-1 [1], the IC50 stood at 34 nM.

With `O=C(O)[C@H]1NC[C@H](NCC(F)(F)F)[C@H]1CCCB(O)O`, the bioavailability in [2] was found to be 10%.

On to `O=C(O)[C@H]1N[C@H](CO)C[C@H]1CCCB(O)O`, for which the bioavailability in data set [4] and in [2] was 12% throughout. Further, a half-maximal effect at Arginase-1 [3] (EC50) was put at 4200 nM. Besides, on Arginase-1 [1], the IC50 is 8 nM.

For `O=C(O)[C@@]1(CCN2CCCCC2)NCC[C@H]1CCCB(O)O`, the bioavailability in data set [4] stood at 2.7%; in data set [2] it was 8.5%. For the same compound, the EC50 on Arginase-1 [3] is > 30000 nM. In addition, the IC50 at Arginase-1 [1] came out at 70 nM.

Consider `CC(C)[C@H](N)C(=O)N[C@H]1CN[C@H](C(=O)O)[C@@H]1CCCB(O)O`, for which the Stabilty entry in data set [14] is listed as “Unstable”. The IC50 on Arginase-1 [1] came to 2 nM. For the same compound, the bioavailability in [2] worked out at 13%.

For the compound `O=C(O)[C@H]1NC[C@H](O)[C@H]1CCCB(O)O`, the bioavailability in data set [4] stood at 12%; in data set [2] it was 41%. For the same compound, a half-maximal effect on Arginase-1 [3] (EC50) was put at 6900 nM. The IC50 at Arginase-1 [1] came out at 4 nM.

Take `C[C@H](N)C(=O)N[C@H]1CN[C@H](C(=O)O)[C@@H]1CCCB(O)O`: the Stabilty entry in data set [14] is “Unstable”. For the same compound, the Drug metabolism entry in data set [15] is reported as “Metabolite_Detected”. For the same compound, the bioavailability in [16] is 27%; in data set [2], 3%. At Arginase-1 [1], the IC50 was 11 nM.

Take `NC[C@@]1(CCCB(O)O)CCN[C@@H]1C(=O)O`: the EC50 on Arginase-1 [3] came to 14000 nM. Moreover, on Arginase-1 [1], the IC50 amounted to 5 nM.

`CN(C)[C@H]1CN[C@H](C(=O)O)[C@@H]1CCCB(O)O`: the IC50 at Arginase-1 [1] came to 66 nM. The bioavailability in data set [2] was 17%.

Consider `O=C(O)C1CC(CCB(O)O)CN1` (racemic), for which, on Arginase-1 [1], the IC50 was determined as 8730 nM.

As for `NC[C@@H]1C[C@@H](CCCB(O)O)[C@@H](C(=O)O)N1`, the bioavailability in data set [4] is 51%; in data set [2] it was 44%. The compound also registered an EC50 at Arginase-1 [3] of 16000 nM. Further, the IC50 on Arginase-1 [1] was 30 nM.

With `C[C@@]1(CCCB(O)O)CCN[C@@H]1C(=O)O`, the bioavailability was 9% in data set [4] and 19% in data set [2]. For the same compound, a half-maximal effect on Arginase-1 [3] (EC50) was put at 6300 nM. In addition, the IC50 on Arginase-1 [1] is 33 nM.

Turning to `CC(C)(C)[C@H](N)C(=O)N[C@H]1CN[C@H](C(=O)O)[C@@H]1CCCB(O)O`, at Arginase-1 [1], the half-inhibitory concentration (IC50) was < 1 nM. Also, the bioavailability in data set [2] was 34%.

As to `CO[C@H]1CN[C@H](C(=O)O)[C@@H]1CCCB(O)O`, at Arginase-1 [3], the EC50 was 28000 nM.

Turning to `O=C(O)[C@H]1NCCO[C@H]1CCCB(O)O`, the bioavailability in [4] came to 10%; in data set [2], 14%.
